Patent US20230374038A1, “MODULATORS OF CYSTIC FIBROSIS TRANSMEMBRANE CONDUCTANCE REGULATOR” (VERTEX PHARMACEUTICALS INCORPORATED, priority 2020, published 2023)

molecular target: T1, CFTR (Homo sapiens, UniProt P13569, DEL508-508); assay: HBE Assay: Ussing chamber assay of CFTR-mediated short-circuit currents in F508del/MF-HBE cells with 1 μM Ivacaftor; assay type: cell-based; conditions: range of concentrations with 1 μM Ivacaftor, 18-24 hours, 20% human serum
T1 construct: endogenous in cells; host or cells: primary human bronchial epithelial cells, F508del/MF genotype
Description: Ussing chamber experiments were performed using human bronchial epithelial (HBE) cells derived from CF subjects heterozygous for F508del and a minimal function CFTR mutation (F508del/MF-HBE) and cultured as previously described (Neuberger T, Burton B, Clark H, Van Goor F Methods Mol Biol 2011:741:39-54). After four days the apical media was removed, and the cells were grown at an air liquid interface for >14 days prior to use.
(§1) To isolate the CFTR-mediated short-circuit (ISC) current, F508del/MF-HBE grown on Costar® Snapwell™ cell culture inserts were mounted in an Ussing chamber and the transepithelial ISC was measured under voltage-clamp recording conditions (Vhold=0 mV) at 37° C. The basolateral solution contained (in mM) 145 NaCl, 0.83 K2HIPO4, 3.3 KH2PO4, 1.2 MgCl2, 1.2 CaCl2), 10 Glucose, 10 HEPES (pH adjusted to 7.4 with NaOH) and the apical solution contained (in mM) 145 NaGluconate, 1.2 MgCl2, 1.2 CaCl2), 10 glucose, 10 HEPES (pH adjusted to 7.4 with NaOH) and 30 μM amiloride to block the epithelial sodium channel. Forskolin (20 μM) was added to the apical surface to activate CFTR, followed by apical addition of a CFTR inhibitor cocktail consisting of BPO, GlyH-101, and CFTR inhibitor 172 (each at 20 μM final assay concentration) to specifically isolate CFTR currents. The CFTR-mediated ISC (μA/cm^2) for each condition was determined from the peak forskolin response to the steady-state current following inhibition.
The activity of the CFTR corrector compounds on the CFTR-mediated ISC was determined in Ussing chamber studies as described above. The F508del/MF-HBE cell cultures were either incubated with the corrector compounds at a range of concentrations in combination with 1 μM Ivacaftor or were incubated with the corrector compounds at a single fixed concentration of 10 μM in combination with 1 μM Ivacaftor for 18-24 hours at 37° C. and in the presence of 20% human serum. The concentration of corrector compounds with 1 μM Ivacaftor during the 18-24 hours incubations was kept constant throughout the Ussing chamber measurement of the CFTR-mediated ISC to ensure compounds were present throughout the entire experiment.
as §1, with “K2HPO4,” for “K2HIPO4,”

T1 sequence (P13569 with tags, fused parts or gaps DEL508-508): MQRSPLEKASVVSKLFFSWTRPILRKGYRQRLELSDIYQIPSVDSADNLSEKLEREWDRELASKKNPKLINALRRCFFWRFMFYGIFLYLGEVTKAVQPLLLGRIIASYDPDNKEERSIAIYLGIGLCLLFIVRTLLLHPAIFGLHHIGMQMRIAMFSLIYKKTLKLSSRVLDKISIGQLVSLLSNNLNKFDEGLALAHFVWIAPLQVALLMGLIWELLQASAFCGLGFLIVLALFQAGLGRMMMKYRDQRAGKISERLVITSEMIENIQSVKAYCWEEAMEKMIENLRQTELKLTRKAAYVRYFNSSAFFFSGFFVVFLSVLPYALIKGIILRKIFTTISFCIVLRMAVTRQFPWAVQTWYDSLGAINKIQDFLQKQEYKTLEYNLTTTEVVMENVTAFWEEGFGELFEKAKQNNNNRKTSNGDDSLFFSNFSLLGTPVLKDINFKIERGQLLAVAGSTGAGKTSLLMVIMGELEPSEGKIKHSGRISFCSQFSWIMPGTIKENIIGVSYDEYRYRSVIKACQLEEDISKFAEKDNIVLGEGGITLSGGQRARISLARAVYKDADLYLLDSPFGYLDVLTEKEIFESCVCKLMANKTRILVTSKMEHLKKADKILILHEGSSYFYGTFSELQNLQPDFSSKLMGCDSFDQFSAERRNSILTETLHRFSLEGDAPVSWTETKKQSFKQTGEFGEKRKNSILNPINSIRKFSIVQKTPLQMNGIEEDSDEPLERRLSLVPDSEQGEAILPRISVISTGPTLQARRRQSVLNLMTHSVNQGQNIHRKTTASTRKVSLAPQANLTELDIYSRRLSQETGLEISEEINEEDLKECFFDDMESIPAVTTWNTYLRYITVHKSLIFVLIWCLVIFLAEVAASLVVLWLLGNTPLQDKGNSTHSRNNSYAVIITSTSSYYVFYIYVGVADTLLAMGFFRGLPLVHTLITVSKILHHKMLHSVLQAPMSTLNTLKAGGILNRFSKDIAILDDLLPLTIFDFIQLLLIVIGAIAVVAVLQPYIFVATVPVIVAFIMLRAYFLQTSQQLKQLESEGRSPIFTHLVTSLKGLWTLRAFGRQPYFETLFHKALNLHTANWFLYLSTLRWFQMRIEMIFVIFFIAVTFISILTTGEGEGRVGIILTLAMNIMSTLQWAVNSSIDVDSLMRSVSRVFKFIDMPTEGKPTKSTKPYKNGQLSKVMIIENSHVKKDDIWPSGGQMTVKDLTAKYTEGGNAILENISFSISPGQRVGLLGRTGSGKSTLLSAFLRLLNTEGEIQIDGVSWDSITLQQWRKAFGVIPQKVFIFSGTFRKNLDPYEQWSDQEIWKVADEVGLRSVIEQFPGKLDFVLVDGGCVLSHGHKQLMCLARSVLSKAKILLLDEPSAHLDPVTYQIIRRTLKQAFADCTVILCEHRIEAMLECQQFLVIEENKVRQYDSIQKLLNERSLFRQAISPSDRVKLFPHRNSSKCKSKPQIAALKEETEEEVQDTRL

SMILES	EC50
COc1c2nc(nc1-c1c(C)cccc1C)NS(=O)(=O)c1cccc(c1)C(=O)N(Cc1ncc(OC(C)C)cn1)[C@H](CC(C)C)CO2 [Compound 348]	< 1000 nM
Cc1cccc(C)c1-c1nc2nc(c1F)OC[C@@H](CC(C)C)N(Cc1ncc(OC(C)C)cn1)C(=O)c1cccc(c1)S(=O)(=O)N2 [Compound 337]	< 1000 nM
Cc1cccc(C)c1-c1nc2nc(c1F)OC[C@@H](CC(C)(C)C)N(Cc1ncc(OC3CCC3)cn1)C(=O)c1cccc(c1)S(=O)(=O)N2 [Compound 336]	< 1000 nM
Cc1cccc(OC(C)C)c1-c1nc2nc(c1C)OC[C@@H](CC(C)(C)C)N(Cc1cncc(N(C)CC(C)(C)C)n1)C(=O)c1cccc(c1)S(=O)(=O)N2 (atropisomer, axis not shown) [Compound 332]	< 1000 nM

same assay, conditions: single fixed concentration of 10 μM with 1 μM Ivacaftor, 18-24 hours, 20% human serum

SMILES	HBE Activity at 10 μM (%)
Cc1cccc(C)c1-c1nc2nc(c1C)OC[C@@H](CC1CCC1)N(Cc1ncc(OC(C)C)cn1)C(=O)c1cccc(c1)S(=O)(=O)N2 [Compound 355]	+++ (+++ is >60%)

same assay, conditions: single fixed concentration of 10 μM, with 1 μM Ivacaftor, 20% human serum

SMILES	HBE Activity at 10 μM
Cc1cccc(CC2CCCC2)c1-c1nc2nc(c1C)OC[C@@H](CC(C)(C)C)NC(=O)c1cccc(c1)S(=O)(=O)N2 (atropisomer, axis not shown) [Compound 224]	+++ (+++ is >600%)
Cc1cccc(COC(C)C)c1-c1nc2nc(c1C)OC[C@@H](CC(C)(C)C)N(Cc1ncc(N3CCC(C)(C)C3)cn1)C(=O)c1cccc(c1)S(=O)(=O)N2 (atropisomer, axis not shown; (M)) [Compound 220, (5M,11R)-11-(2,2-dimethylpropyl)-12-{[5-(3,3-dimethylpyrrolidin-1-yl)pyrimidin-2-yl]methyl}-7-methyl-6-{2-methyl-6-[(propan-2-yloxy)methyl]phenyl}-9-oxa-2λ^6-thia-3,5,12,19-tetraazatricyclo[12.3.1.14,8]nonadeca-1(17),4(19),5,7,14(18),15-hexaene-2,2,13-trione]	++ (++ is 30-60%)
Cc1cccc(CC2CCOCC2)c1-c1nc2nc(c1C)OC[C@@H](CC(C)(C)C)N(Cc1ncc(N3CCC(C)(C)C3)cn1)C(=O)c1cccc(c1)S(=O)(=O)N2 (atropisomer, axis not shown) [Compound 271]	+++ (+++ is >600%)
Cc1cccc(CC2CCCCC2)c1-c1nc2nc(c1C(F)(F)F)OC[C@@H](CC(C)(C)C)N(Cc1ncc(N3CCOCC3)cn1)C(=O)c1cccc(c1)S(=O)(=O)N2 (atropisomer, axis not shown) [Compound 245]	++ (++ is 30-60%)
Cc1cccc(CC2CCCC2)c1-c1nc2nc(c1C)OC[C@@H](CC(C)(C)C)N(Cc1nccc(N(C)C(C)C)n1)C(=O)c1cccc(c1)S(=O)(=O)N2 (atropisomer, axis not shown) [Compound 265]	+++ (+++ is >600%)
Cc1cccc(CC2CCOCC2)c1-c1nc2nc(c1C)OC[C@@H](CC(C)(C)C)N(Cc1ncc(N3CCOCC3)cn1)C(=O)c1cccc(c1)S(=O)(=O)N2 (atropisomer, axis not shown; (M)) [Compound 217, (5M,11R)-11-(2,2-dimethylpropyl)-7-methyl-6-{2-methyl-6-[(oxan-4-yl)methyl]phenyl}-12-{[5-(morpholin-4-yl)pyrimidin-2-yl]methyl}-9-oxa-2λ^6-thia-3,5,12,19-tetraazatricyclo[12.3.1.14,8]nonadeca-1(17),4(19),5,7,14(18),15-hexaene-2,2,13-trione]	++ (++ is 30-60%)

same assay, conditions: with 1 μM Ivacaftor, 18-24 hours, 20% human serum

SMILES	EC50	HBE Max Activity
Cc1cccc(C)c1-c1nc2nc(c1C)OC[C@@H](CC(C)C)N(Cc1ncc(N3CCC(C)(C)CC3)cn1)C(=O)c1cccc(c1)S(=O)(=O)N2 [Compound 198]	< 1000 nM	+++ (+++ is >600%)
Cc1cccc(CC(C)(C)C)c1-c1nc2nc(c1C)OC[C@@H](CC(C)(C)C)N(Cc1ncc(N3CCC(C)(C)C3)cn1)C(=O)c1cccc(c1)S(=O)(=O)N2 (single isomer, unassigned) [Compound 215]	< 1000 nM	+++ (+++ is >600%)
Cc1cccc(CC2CCCCC2)c1-c1nc2nc(c1C)OC[C@@H](CC(C)(C)C)N(Cc1nccc(C(C)C)n1)C(=O)c1cccc(c1)S(=O)(=O)N2 [Compound 250]	< 1000 nM	+++ (+++ is >600%)
Cc1cccc(CC2CCCCC2)c1-c1nc2nc(c1C)OC[C@@H](CC(C)(C)C)NC(=O)c1cccc(c1)S(=O)(=O)N2 (atropisomer, axis not shown) [Compound 312]	< 1000 nM	++ (++ is 30-60%)
Cc1cccc(CC2CCCCC2)c1-c1nc2nc(c1C)OC[C@@H](CC(C)(C)C)N(Cc1ccc(N3CCOCC3)cn1)C(=O)c1cccc(c1)S(=O)(=O)N2 (single isomer, unassigned) [Compound 207]	< 1000 nM	+++ (+++ is >600%)
Cc1cccc(CC2CCCC2)c1-c1nc2nc(c1C)OC[C@@H](CC(C)(C)C)N(Cc1ncc(N3CCOCC3)cn1)C(=O)c1cccc(c1)S(=O)(=O)N2 (atropisomer, axis not shown) [Compound 281]	< 1000 nM	+++ (+++ is >600%)
Cc1cccc(CC2CCCC2)c1-c1nc2nc(c1C)OC[C@@H](CC(C)(C)C)N(Cc1ncc(CC(C)C)cn1)C(=O)c1cccc(c1)S(=O)(=O)N2 (atropisomer, axis not shown) [Compound 268]	< 1000 nM	+++ (+++ is >600%)
Cc1cccc(C)c1-c1nc2nc(c1C)OC[C@@H](CC(C)(C)C)N(Cc1ncc(N3CCC(C)(C)C3)cn1)C(=O)c1cccc(c1)S(=O)(=O)N2 [Compound 191]	< 1000 nM	+++ (+++ is >600%)
Cc1cccc(CC2CCCC2)c1-c1nc2nc(c1C)OC[C@@H](CC(C)(C)C)N(Cc1ncc(N3CCOCC3)cn1)C(=O)c1cccc(c1)S(=O)(=O)N2 (atropisomer, axis not shown) [Compound 280]	< 1000 nM	+++ (+++ is >600%)
Cc1cccc(CC(C)C)c1-c1nc2nc(c1C)OC[C@@H](CC(C)C)N(Cc1ncc(CC(C)C)cn1)C(=O)c1cccc(c1)S(=O)(=O)N2 (atropisomer, axis not shown; (P)) [Compound 219, (5P,11R)-11-isobutyl-6-(2-isobutyl-6-methyl-phenyl)-12-[(5-isobutylpyrimidin-2-yl)methyl]-7-methyl-2,2-dioxo-9-oxa-2^6-thia-3,5,12,19-tetrazatricyclo[12.3.1.14,8]nonadeca-1(18),4(19),5,7,14,16-hexaen-13-one]	< 1000 nM	+++ (+++ is >600%)
Cc1cccc(CC2CCCCC2)c1-c1nc2nc(c1C)OC[C@@H](CC(C)(C)C)N(Cc1ncc(N3CCC(C)(C)C3)cn1)C(=O)c1cccc(c1)S(=O)(=O)N2 (atropisomer, axis not shown) [Compound 254]	1000 to 3000 nM	+++ (+++ is >600%)
Cc1cccc(CC(C)C)c1-c1nc2nc(c1C(F)(F)F)OC[C@@H](CC(C)(C)C)N(Cc1ccc(N3CCOCC3)cn1)C(=O)c1cccc(c1)S(=O)(=O)N2 (atropisomer, axis not shown) [Compound 246]	< 1000 nM	+++ (+++ is >600%)
Cc1cccc(CC2CCCCC2)c1-c1nc2nc(c1C)OC[C@@H](CC(C)(C)C)N(Cc1ncc(N3CCC(C)(C)CC3)cn1)C(=O)c1cccc(c1)S(=O)(=O)N2 (atropisomer, axis not shown) [Compound 260]	< 1000 nM	+++ (+++ is >600%)
Cc1cccc(CC(C)C)c1-c1nc2nc(c1C)OC[C@@H](CC(C)(C)C)N(Cc1ccc(N3CCOCC3)cn1)C(=O)c1cccc(c1)S(=O)(=O)N2 (atropisomer, axis not shown) [Compound 298]	< 1000 nM	+++ (+++ is >600%)

same assay, conditions: with 1 μM Ivacaftor, 18-24 hours, 20% human serum, compared to known Vertex corrector with 18 μM Tezacaftor and 1 μM Ivacaftor, read-out: HBE Max activity (%)

SMILES	Emax
COc1c2nc(nc1-c1c(C)cccc1C)NS(=O)(=O)c1cccc(c1)C(=O)N(Cc1ncc(OC(C)C)cn1)[C@H](CC(C)C)CO2 [Compound 348]	> 60%
Cc1cccc(C)c1-c1nc2nc(c1F)OC[C@@H](CC(C)C)N(Cc1ncc(OC(C)C)cn1)C(=O)c1cccc(c1)S(=O)(=O)N2 [Compound 337]	> 60%
Cc1cccc(C)c1-c1nc2nc(c1F)OC[C@@H](CC(C)(C)C)N(Cc1ncc(OC3CCC3)cn1)C(=O)c1cccc(c1)S(=O)(=O)N2 [Compound 336]	> 60%
Cc1cccc(OC(C)C)c1-c1nc2nc(c1C)OC[C@@H](CC(C)(C)C)N(Cc1cncc(N(C)CC(C)(C)C)n1)C(=O)c1cccc(c1)S(=O)(=O)N2 (atropisomer, axis not shown) [Compound 332]	> 60%
